Assay results taken from ChEMBL document CHEMBL2073856, “Carrier-mediated hepatobiliary transport of a novel antifolate, N-[4-[(2,4-dianninopteridine-6-yl)methyl]-3,4-dihydro-2H-1,4-benzothiazin-7-yl]carbonyl-L-homoglutamic acid, in rats” (Drug Metab Dispos, 2001).
Blank lines part the entries; values can stand above or below the molecule they belong to.

How the values were obtained:
[1] = molecular target: ATP-binding cassette sub-family C member 2 (Rattus norvegicus, UniProt Q63120); assay: TP_TRANSPORTER: inhibition of DNP-SG uptake in bile canalicular membrane vesicles from SD rat; type: functional, cell membranes, Sprague-Dawley, Bile canalicular membrane vesicle
[2] = substrate: Nc1nc(N)c2nc(CN3CCSc4cc(C(=O)NC(CCCC(=O)O)C(=O)O)ccc43)cnc2n1; assay: TP_TRANSPORTER: uptake in bile canalicular membrane vesicles from SD rat; type: functional, cell membranes, Sprague-Dawley, Bile canalicular membrane vesicle

Ki [1]: 162 µM
Molecule: Nc1nc(N)c2nc(CN3CCSc4cc(C(=O)NC(CCCC(=O)O)C(=O)O)ccc43)cnc2n1 (configuration not stated)

B1: ATP-binding cassette sub-family C member 2 (Rattus norvegicus) (protein)
chain: MDKFCNSTFWDLSLLESPEADLPLCFEQTVLVWIPLGFLWLLAPWQLYSVYRSRTKRSSITKFYLAKQVFVVFLLILAAIDLSLALTEDTGQATVPPVRYTNPILYLCTWLLVLAVQHSRQWCVRKNSWFLSLFWILSVLCGVFQFQTLIRALLKDSKSNMAYSYLFFVSYGFQIVLLILTAFSGPSDSTQTPSVTASFLSSITFSWYDRTVLKGYKHPLTLEDVWDIDEGFKTRSVTSKFEAAMTKDLQKARQAFQRRLQKSQRKPEATLHGLNKKQSQSQDVLVLEEAKKKSEKTTKDYPKSWLIKSLFKTFHVVILKSFILKLIHDLLVFLNPQLLKLLIGFVKSSNSYVWFGYICAILMFAVTLIQSFCLQSYFQHCFVLGMCVRTTVMSSIYKKALTLSNLARKQYTIGETVNLMSVDSQKLMDATNYMQLVWSSVIQITLSIFFLWRELGPSILAGVGVMVLLIPVNGVLATKIRNIQVQNMKNKDKRLKIMNEILSGIKILKYFAWEPSFQEQVQGIRKKELKNLLRFGQLQSLLIFILQITPILVSVVTFSVYVLVDSANVLNAEKAFTSITLFNILRFPLSMLPMVTSSILQASVSVDRLERYLGGDDLDTSAIRRVSNFDKAVKFSEASFTWDPDLEATIQDVNLDIKPGQLVAVVGTVGSGKSSLVSAMLGEMENVHGHITIQGSTAYVPQQSWIQNGTIKDNILFGSEYNEKKYQQVLKACALLPDLEILPGGDMAEIGEKGINLSGGQKQRVSLARAAYQDADIYILDDPLSAVDAHVGKHIFNKVVGPNGLLAGKTRIFVTHGIHFLPQVDEIVVLGKGTILEKGSYRDLLDKKGVFARNWKTFMKHSGPEGEATVNNDSEAEDDDDGLIPTMEEIPEDAASLAMRRENSLRRTLSRSSRSSSRRGKSLKNSLKIKNVNVLKEKEKEVEGQKLIKKEFVETGKVKFSIYLKYLQAVGWWSILFIILFYGLNNVAFIGSNLWLSAWTSDSDNLNGTNNSSSHRDMRIGVFGALGLAQGICLLISTLWSIYACRNASKALHGQLLTNILRAPMRFFDTTPTGRIVNRFSGDISTVDDLLPQTLRSWMMCFFGIAGTLVMICMATPVFAIIIIPLSILYISVQVFYVATSRQLRRLDSVTKSPIYSHFSETVTGLPIIRAFEHQQRFLAWNEKQIDINQKCVFSWITSNRWLAIRLELVGNLVVFCSALLLVIYRKTLTGDVVGFVLSNALNITQTLNWLVRMTSEAETNIVAVERISEYINVENEAPWVTDKRPPADWPRHGEIQFNNYQVRYRPELDLVLKGITCNIKSGEKVGVVGRTGAGKSSLTNCLFRILESAGGQIIIDGIDVASIGLHDLRERLTIIPQDPILFSGSLRMNLDPFNKYSDEEVWRALELAHLRSFVSGLQLGLLSEVTEGGDNLSIGQRQLLCLGRAVLRKSKILVLDEATAAVDLETDSLIQTTIRKEFSQCTVITIAHRLHTIMDSDKIMVLDNGKIVEYGSPEELLSNRGSFYLMAKEAGIENVNHTEL
Km [2]: 207 µM
